Literature values, collected in PMC2988205 (Medicinal Chemistry Research, 2009).

System: β3-AR
Settings: read-out: β3 EC50; β3-AR partial agonist; ref Naylor et al., 1998

In the case of C[C@H](Cc1ccc(OCC(=O)O)cc1)NC[C@H](O)c1cccc(Cl)c1 [BRL-37344], the EC50 is given as 450 nM.
